Results: the supplement of paper PMC8967900

Tests used:
Assay in all cases: selective drug sensitivity score (sDSS, relative to normal bone marrow) (sDSS (score)); higher = more potent and effective on the cell line relative to normal bone marrow cells
Conditions in all cases: 72 h
MHH-CALL-3 = tested on: MHH-CALL-3
MN-60 = tested on: MN-60
KARPAS-45 = tested on: KARPAS-45
RCH-ACV = tested on: RCH-ACV
SEM cells = tested on: SEM cells
KASUMI-10 = tested on: KASUMI-10
MHH-CALL-4 = tested on: MHH-CALL-4
TANOUE = tested on: TANOUE
HPB-ALL = tested on: HPB-ALL
TMD5 = tested on: TMD5
COG-LL-394h = tested on: COG-LL-394h
COG-LL-402h = tested on: COG-LL-402h
380 = tested on: 380
KOPN-8 = tested on: KOPN-8
MOLT-14 = tested on: MOLT-14
NALM-16 = tested on: NALM-16
P30-OHKUBO = tested on: P30-OHKUBO
REH = tested on: REH
MHH-CALL-2 = tested on: MHH-CALL-2
NALL-1 = tested on: NALL-1
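Further: ALL cell lines in 384-well plates, five doses spanning 10,000-fold, each plate scaled between vehicle and 100 µmol/L benzalkonium chloride controls, sDSS an adapted area-under-curve metric.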

FC(F)(F)c1ccc(/C=C/c2nc(COc3ccc(CCCCn4ccnn4)cc3)co2)cc1 [Mubritinib] (top concentration 1000 nM)
selective drug sensitivity score (MHH-CALL-3): 3.06
selective drug sensitivity score (MN-60): 17.6
selective drug sensitivity score (KARPAS-45): 11.6
selective drug sensitivity score (RCH-ACV): 12.7
selective drug sensitivity score (SEM cells): 6.56
selective drug sensitivity score (KASUMI-10): -2.24
selective drug sensitivity score (MHH-CALL-4): 3.46
selective drug sensitivity score (TANOUE): 18.7
selective drug sensitivity score (HPB-ALL): 8.86
selective drug sensitivity score (TMD5): 0.26
selective drug sensitivity score (COG-LL-394h): 16.2
selective drug sensitivity score (COG-LL-402h): -0.84
selective drug sensitivity score 380: 0.66
selective drug sensitivity score (KOPN-8): 7.76
selective drug sensitivity score (MOLT-14): 4.46
selective drug sensitivity score (NALM-16): 4.66
selective drug sensitivity score (P30-OHKUBO): 7.06
selective drug sensitivity score (REH): 20
selective drug sensitivity score (MHH-CALL-2): 4.76
selective drug sensitivity score (NALL-1): -2.24

O=c1sn(-c2cccc3ccccc23)c(=O)n1Cc1ccccc1 [Tideglusib] (top concentration 3000 nM)
selective drug sensitivity score (MHH-CALL-3): -0.3
selective drug sensitivity score (MN-60): -0.3
selective drug sensitivity score (KARPAS-45): -0.3
selective drug sensitivity score (RCH-ACV): -0.3
selective drug sensitivity score (SEM cells): -0.3
selective drug sensitivity score (KASUMI-10): 0.3
selective drug sensitivity score (MHH-CALL-4): 0.9
selective drug sensitivity score (TANOUE): -0.3
selective drug sensitivity score (HPB-ALL): -0.3
selective drug sensitivity score (TMD5): -0.3
selective drug sensitivity score (COG-LL-394h): -0.3
selective drug sensitivity score (COG-LL-402h): -0.3
selective drug sensitivity score 380: -0.3
selective drug sensitivity score (KOPN-8): -0.3
selective drug sensitivity score (MOLT-14): -0.3
selective drug sensitivity score (NALM-16): -0.3
selective drug sensitivity score (P30-OHKUBO): -0.3
selective drug sensitivity score (REH): 0.4
selective drug sensitivity score (MHH-CALL-2): 0.5
selective drug sensitivity score (NALL-1): -0.3

N#Cc1ccc2[nH]c(O)c(-c3ccc(CN4CCOCC4)cn3)c2c1 [AZD-1080] (top concentration 10000 nM)
selective drug sensitivity score (MHH-CALL-3): 5.18
selective drug sensitivity score (MN-60): -0.02
selective drug sensitivity score (KARPAS-45): -0.02
selective drug sensitivity score (RCH-ACV): 3.98
selective drug sensitivity score (SEM cells): 4.58
selective drug sensitivity score (KASUMI-10): 1.88
selective drug sensitivity score (MHH-CALL-4): -0.02
selective drug sensitivity score (TANOUE): -0.02
selective drug sensitivity score (HPB-ALL): -0.02
selective drug sensitivity score (TMD5): -0.02
selective drug sensitivity score (COG-LL-394h): -0.02
selective drug sensitivity score (COG-LL-402h): 2.08
selective drug sensitivity score 380: -0.02
selective drug sensitivity score (KOPN-8): 4.28
selective drug sensitivity score (MOLT-14): -0.02
selective drug sensitivity score (NALM-16): 0.48
selective drug sensitivity score (P30-OHKUBO): 1.78
selective drug sensitivity score (REH): 8.28
selective drug sensitivity score (MHH-CALL-2): -0.02
selective drug sensitivity score (NALL-1): -0.02

CCOc1ccccc1-n1c(C(C)N2CCN(C(=O)COc3ccc(Cl)cc3)CC2)nc2ccccc2c1=O (stereo not given) [Erastin] (top concentration 10000 nM)
selective drug sensitivity score (MHH-CALL-3): 24.4
selective drug sensitivity score (MN-60): -6.86
selective drug sensitivity score (KARPAS-45): 8.24
selective drug sensitivity score (RCH-ACV): 17.6
selective drug sensitivity score (SEM cells): 6.34
selective drug sensitivity score (KASUMI-10): -4.36
selective drug sensitivity score (MHH-CALL-4): 6.44
selective drug sensitivity score (TANOUE): -9.96
selective drug sensitivity score (HPB-ALL): 6.54
selective drug sensitivity score (TMD5): 7.04
selective drug sensitivity score (COG-LL-394h): -0.76
selective drug sensitivity score (COG-LL-402h): 7.64
selective drug sensitivity score 380: 24.8
selective drug sensitivity score (KOPN-8): 18.8
selective drug sensitivity score (MOLT-14): 8.54
selective drug sensitivity score (NALM-16): 9.34
selective drug sensitivity score (P30-OHKUBO): 9.54
selective drug sensitivity score (REH): 7.04
selective drug sensitivity score (MHH-CALL-2): 6.34
selective drug sensitivity score (NALL-1): 6.64

CN(C)C(=N)NC(=N)N [Metformin] (top concentration 100000 nM)
selective drug sensitivity score (MHH-CALL-3): -0.02
selective drug sensitivity score (MN-60): -0.02
selective drug sensitivity score (KARPAS-45): -0.02
selective drug sensitivity score (RCH-ACV): -0.02
selective drug sensitivity score (SEM cells): -0.02
selective drug sensitivity score (KASUMI-10): -0.02
selective drug sensitivity score (MHH-CALL-4): -0.02
selective drug sensitivity score (TANOUE): -0.02
selective drug sensitivity score (HPB-ALL): -0.02
selective drug sensitivity score (TMD5): -0.02
selective drug sensitivity score (COG-LL-394h): -0.02
selective drug sensitivity score (COG-LL-402h): -0.02
selective drug sensitivity score 380: -0.02
selective drug sensitivity score (KOPN-8): -0.02
selective drug sensitivity score (MOLT-14): -0.02
selective drug sensitivity score (NALM-16): -0.02
selective drug sensitivity score (P30-OHKUBO): -0.02
selective drug sensitivity score (REH): 0.08
selective drug sensitivity score (MHH-CALL-2): 0.58
selective drug sensitivity score (NALL-1): -0.02
